In the NIST ThermoML archive (doi:10.1016/j.jct.2006.06.001):
Numbers after ± are expanded uncertainties.

Legend:
[1] = 81.5 kPa, Liquid
[2] = xn = mol fraction of the nth substance listed; conditions: 81.5 kPa, Liquid

CC(O)CO (centres undefined) [1,2-propanediol]
[1]
Conditions | mass density [kg/m3]
293.15 K | 1036.3 ± 0.24
303.15 K | 1028.89 ± 0.23
313.15 K | 1021.35 ± 0.22
323.15 K | 1013.68 ± 0.21
333.15 K | 1005.86 ± 0.2
343.15 K | 997.86 ± 0.19

COCCO [2-methoxyethan-1-ol]
[1]
Conditions | mass density [kg/m3]
293.15 K | 964.86 ± 0.23
303.15 K | 955.68 ± 0.24
313.15 K | 946.38 ± 0.25
323.15 K | 936.95 ± 0.27
333.15 K | 927.38 ± 0.28
343.15 K | 917.64 ± 0.29

COCCO [2-methoxyethan-1-ol] + CC(C)O
mass density [kg/m3], [2]
Conditions | 293.15 K | 303.15 K | 313.15 K | 323.15 K | 333.15 K | 343.15 K
x1 = 0.0823 | 800.06 ± 0.47 | 791.49 ± 0.48 | 782.64 ± 0.49 | 773.45 ± 0.51 | 763.86 ± 0.52 | 753.79 ± 0.54
x1 = 0.1565 | 813.56 ± 0.45 | 804.91 ± 0.46 | 796 ± 0.47 | 786.79 ± 0.49 | 777.21 ± 0.5 | 767.2 ± 0.52
x1 = 0.2367 | 828.13 ± 0.43 | 819.4 ± 0.44 | 810.43 ± 0.45 | 801.18 ± 0.47 | 791.6 ± 0.48 | 781.64 ± 0.5
x1 = 0.3166 | 842.63 ± 0.4 | 833.83 ± 0.42 | 824.81 ± 0.43 | 815.54 ± 0.45 | 805.96 ± 0.46 | 796.02 ± 0.47
x1 = 0.4015 | 858.01 ± 0.38 | 849.14 ± 0.4 | 840.08 ± 0.41 | 830.78 ± 0.42 | 821.21 ± 0.44 | 811.31 ± 0.45
x1 = 0.4766 | 871.62 ± 0.36 | 862.69 ± 0.38 | 853.59 ± 0.39 | 844.26 ± 0.4 | 834.69 ± 0.42 | 824.82 ± 0.43
x1 = 0.5605 | 886.76 ± 0.34 | 877.79 ± 0.35 | 868.64 ± 0.37 | 859.3 ± 0.38 | 849.72 ± 0.39 | 839.87 ± 0.41
x1 = 0.6403 | 901.1 ± 0.32 | 892.08 ± 0.33 | 882.9 ± 0.35 | 873.54 ± 0.36 | 863.96 ± 0.37 | 854.14 ± 0.39
x1 = 0.7179 | 914.98 ± 0.3 | 905.92 ± 0.31 | 896.72 ± 0.33 | 887.34 ± 0.34 | 877.76 ± 0.35 | 867.96 ± 0.37
x1 = 0.7925 | 928.26 ± 0.28 | 919.16 ± 0.29 | 909.94 ± 0.31 | 900.55 ± 0.32 | 890.96 ± 0.33 | 881.18 ± 0.35
x1 = 0.8593 | 940.12 ± 0.26 | 931 ± 0.27 | 921.74 ± 0.29 | 912.34 ± 0.3 | 902.77 ± 0.32 | 892.99 ± 0.33
x1 = 0.9585 | 957.65 ± 0.24 | 948.49 ± 0.25 | 939.2 ± 0.26 | 929.78 ± 0.28 | 920.21 ± 0.29 | 910.45 ± 0.31
